ChEMBL document CHEMBL5625215, “Antiproliferative activity of meso-substituted BODIPY photocages: Effect of electrophiles vs singlet oxygen” (Eur J Med Chem, 2023)
Calls of active or inactive are those of the source. The calls are words filed in the database; no cut-off is given here.

Columns and labels:
[1] = Induction of singlet oxygen production in CH3CN assessed as decrease in fluorescence intensity at 450 nm under photoirradiation with visible light and measured after 15 sec by DPBF based assay relative to control; assay type: functional; parameters: scale not given: the % may be the effect or the level left
[2] = Cytotoxicity against human HaCaT cells assessed as inhibition of cell growth incubated for 72 hrs under photoirradiation with 6 cool white lamps for 15 mins at 4,28 and 52 hrs after compound addition by MTT assay; assay type: toxicity, cell-based
[3] = Absorption property of compound in CH3CN assessed as maximal molar absorption coefficient by UV-vis spectrophotometer; assay type: physicochemical
[4] = Induction of singlet oxygen production in CH3CN assessed as singlet oxygen quantum yield at 450 nm under photoirradiation with visible light and measured after 15 to 60 sec by DPBF based assay; assay type: functional; settings: time 15-60 sec
[5] = Emission property of compound in CH3CN assessed as maximal wavelength by […]; assay type: physicochemical
MCF7 [6] = test: Antiproliferative activity against human MCF7 cells assessed as inhibition of cell growth incubated for 72 hrs under dark condition by MTT assay; assay type: functional, cell-based; settings: MCF7, 72 h
[7] = Fluorescence property of compound in CH3CN assessed as fluorescence quantum yield by spectrofluorometric analysis; assay type: physicochemical
[8] = Absorption property of compound in CH3CN assessed as maximal wavelength by UV-vis spectrophotometer; assay type: physicochemical
HCT-116 [9] = test: Antiproliferative activity against human HCT-116 cells assessed as inhibition of cell growth incubated for 72 hrs under dark condition by MTT assay; assay type: functional, cell-based; settings: HCT-116, 72 h
MCF7 [10] = test: Antiproliferative activity against human MCF7 cells assessed as inhibition of cell growth incubated for 72 hrs under photoirradiation with 6 cool white lamps for 15 mins at 4,28 and 52 hrs after compound addition by MTT assay; assay type: functional, cell-based; settings: MCF7, light or radiation study
NCI-H460 [11] = test: Antiproliferative activity against human NCI-H460 cells assessed as inhibition of cell growth incubated for 72 hrs under photoirradiation with 6 cool white lamps for 15 mins at 4,28 and 52 hrs after compound addition by MTT assay; assay type: functional, cell-based; settings: NCI-H460, light or radiation study
NCI-H460 [12] = test: Antiproliferative activity against human NCI-H460 cells assessed as inhibition of cell growth incubated for 72 hrs under dark condition by MTT assay; assay type: functional, cell-based; settings: NCI-H460, 72 h
[13] = Induction of singlet oxygen production in CH3CN assessed as decrease in fluorescence intensity at 450 nm under photoirradiation with visible light and measured after 45 sec by DPBF based assay relative to control; assay type: functional; parameters: scale not given: the % may be the effect or the level left
HCT-116 [14] = test: Antiproliferative activity against human HCT-116 cells assessed as inhibition of cell growth incubated for 72 hrs under photoirradiation with 6 cool white lamps for 15 mins at 4,28 and 52 hrs after compound addition by MTT assay; assay type: functional, cell-based; settings: HCT-116, light or radiation study
[15] = Cytotoxicity against HEK293T cells assessed as inhibition of cell growth incubated for 72 hrs under photoirradiation with 6 cool white lamps for 15 mins at 4,28 and 52 hrs after compound addition by MTT assay; assay type: toxicity, cell-based, HEK-293T; settings: human
[16] = Cytotoxicity against HEK293T cells assessed as inhibition of cell growth incubated for 72 hrs under dark condition by MTT assay; assay type: toxicity, cell-based, HEK-293T; settings: human
[17] = Cytotoxicity against human HaCaT cells assessed as inhibition of cell growth incubated for 72 hrs under dark condition by MTT assay; assay type: toxicity, cell-based
[18] = Induction of singlet oxygen production in CH3CN assessed as decrease in fluorescence intensity at 450 nm under photoirradiation with visible light and measured after 30 sec by DPBF based assay relative to control; assay type: functional; parameters: scale not given: the % may be the effect or the level left
[19] = Drug localization in nuclear membrane of human NCI-H460 cells incubated for 30 mins by Hoechst 33342 staining based confocal microscopic analysis; assay type: ADME, cell membranes; settings: nci-h460, 0.5 h
NCI-H460 [20] = test: Induction of cell death in human NCI-H460 cells assessed as cell shrinkage preincubated for 30 mins followed by light irradiation for 15 to 30 mins by Hoechst 33342 staining based confocal microscopic analysis; assay type: functional; settings: time 45-60 min
[21] = Drug localization in endoplasmic reticulum of human NCI-H460 cells incubated for 30 mins by Hoechst 33342 staining based confocal microscopic analysis; assay type: ADME, subcellular; settings: nci-h460, 0.5 h
NCI-H460 [22] = test: Induction of cell death in human NCI-H460 cells assessed as dye bleaching preincubated for 30 mins followed by light irradiation for 15 to 30 mins by Hoechst 33342 staining based confocal microscopic analysis; assay type: functional; settings: time 45-60 min
[23] = Drug uptake in HEK293T cells by fluorescence microscopic analysis; assay type: ADME, cell-based; settings: human, hek-293t
NCI-H460 [24] = test: Induction of cell death in human NCI-H460 cells assessed as shrinkage of nuclear volume preincubated for 30 mins followed by light irradiation for 15 to 30 mins by Hoechst 33342 staining based confocal microscopic analysis; assay type: functional; settings: time 45-60 min
NCI-H460 [25] = test: Induction of cell death in human NCI-H460 cells assessed as membrane blebbing preincubated for 30 mins followed by light irradiation for 15 to 30 mins by Hoechst 33342 staining based confocal microscopic analysis; assay type: functional; settings: time 45-60 min
HEK-293T [26] = test: Induction of apoptosis in HEK293T cells assessed as dye bleaching irradiated with visible light by Hoechst 33342 staining based confocal microscopic analysis; assay type: toxicity, cell-based; settings: human
[27] = Drug localization in lipid droplets of human NCI-H460 cells incubated for 30 mins by Hoechst 33342 staining based confocal microscopic analysis; assay type: ADME, subcellular, Lipid droplet; settings: nci-h460, 0.5 h
[28] = Drug localization in golgi body of human NCI-H460 cells incubated for 30 mins by Hoechst 33342 staining based confocal microscopic analysis; assay type: ADME, subcellular; settings: nci-h460, 0.5 h
[29] = Drug localization in cytoplasm of human NCI-H460 cells incubated for 30 mins by Hoechst 33342 staining based confocal microscopic analysis; assay type: ADME, subcellular; settings: nci-h460, 0.5 h
HEK-293T [30] = test: Induction of apoptosis in HEK293T cells assessed as cell death irradiated with visible light by Hoechst 33342 staining based confocal microscopic analysis; assay type: toxicity; settings: human
HCT-116 [31] = test: Induction of ROS generation in human HCT-116 cells at 5 uM incubated for 1 hrs under dark condition by DCFH-DA staining based fluorescence analysis; assay type: functional, cell-based
HCT-116 [32] = test: Induction of ROS generation in human HCT-116 cells assessed as increase in oxidative stress at 5 uM preincubated with compound for 1 hrs followed by photoirradiation with 6 cool white lamps by DCFH-DA staining based fluorescence analysis; assay type: functional, cell-based

Row | Activity [3] [M⁻¹ cm⁻¹] | Activity [5] [nm] | IC50 (MCF7 [6]) [µM] | Activity [7] | Activity [8] [nm] | IC50 (HCT-116 [9]) [µM] | IC50 (MCF7 [10]) [µM] | IC50 (NCI-H460 [11]) [µM] | IC50 (NCI-H460 [12]) [µM] | IC50 (HCT-116 [14]) [µM] | Drug uptake [19] | Structure (SMILES) | Activity [1] [%] | IC50 at 72 h [2] [µM] | Activity [4] | Activity [13] [%] | IC50 at 72 h [15] [µM] | IC50 at 72 h [16] [µM] | IC50 at 72 h [17] [µM] | Activity [18] [%] | Activity (NCI-H460 [20]) | further results
1 | 58719 | 545 | > 100 | 0.017 | 535 | > 100 | 0.13 | 0.22 | > 100 | 0.176 |  | COc1cccc(COC(C)=O)c1OCC1=C2C(C)=C(I)C(C)=[N+]2[B-](C)(C)n2c(C)c(I)c(C)c21 | 84.9 | 0.2 | 0.78 | 100 | 0.2 | > 100 | > 100 | 98.8 |  | 
2 | 59622 | 559 | ≥ 100 | 0.034 | 530 | ≥ 100 | 0.15 | 0.23 | > 100 | 0.19 | Active | COc1cccc(COC(C)=O)c1OCC1=C2C(C)=C(Br)C(C)=[N+]2[B-](C)(C)n2c(C)c(Br)c(C)c21 | 63 | 0.3 | 0.73 | 99.9 | 0.3 | ≥ 100 | > 100 | 91.8 | Active | Drug uptake [21]: Active; Activity (NCI-H460 [22]): Active; Drug uptake [23]: Active; Activity (NCI-H460 [24]): Active; Activity (NCI-H460 [25]): Active; Activity (HEK-293T [26]): Toxic; Drug uptake [27]: Active; Drug uptake [28]: Active; Drug uptake [29]: Active; Activity (HEK-293T [30]): Toxic
3 | 37724 | 558 | 18 | 0.043 | 531 | 25 | 0.17 | 0.19 | 33 | 0.16 | Active | CC(=O)OCc1ccccc1OCC1=C2C(C)=C(Br)C(C)=[N+]2[B-](C)(C)n2c(C)c(Br)c(C)c21 |  |  |  |  |  |  |  |  | Active | Drug uptake [21]: Active; Activity (NCI-H460 [22]): Active; Drug uptake [23]: Active; Activity (NCI-H460 [24]): Active; Activity (NCI-H460 [25]): Active; Activity (HEK-293T [26]): Toxic; Drug uptake [27]: Active; Drug uptake [28]: Active; Drug uptake [29]: Active; Activity (HEK-293T [30]): Toxic
4 | 109069 | 521 | 15 | 0.33 | 510 | 12 | 0.2 | 0.24 | 16 | 0.38 |  | COc1cccc(CO)c1OCC1=C2C(C)=CC(C)=[N+]2[B-](C)(C)n2c(C)cc(C)c21 |  |  |  |  |  |  |  |  |  | Activity (HCT-116 [31]): inactive; Activity (HCT-116 [32]): Active
